Values quoted from earlier work, collected in patent US9982018B2, “Amatoxin derivatives” ([…] GMBH, priority 2013, dated 2018).

Legend:
[1] = target: RNA polymerase II (Homo sapiens, UniProt P24928); details: read-out: KD of complex with RNA polymerase II
[2] = naturally occurring amatoxin lacking the γ-hydroxyl group

amanitin
Kd [1]: 3 nM

amanullin
toxicity [2]: considerably reduced toxicity
